Laboratory results taken from a melting point compilation (Tetko et al.; mined from patent text by program, amines drawn as free bases though some values may be those of a salt).

melting point [°C]	SMILES
170 to 172	CCCCOC(=O)n1c(N)nc(C#N)c1C#N
178 to 180	Cc1cc(F)cc2c1CC/C2=C\C(N)=O
129 to 131	CC(C)(C)OC(=O)C1CCC2(CCn3c(cc4ccccc43)C2)C1=O (stereo not drawn)
166 to 167	CON=C(C(=O)OC)c1ccccc1-c1nnc(-c2cccc(C)c2)o1
171 to 173	CC(=O)NC[C@H]1CN(c2ccc(C3=CN(C(=O)CO)CCC3)c(F)c2)C(=O)O1
158 to 161	O=[N+]([O-])c1ccccc1CSc1nnnn1-c1ccccc1
98 to 100	CC(=O)NC(CCc1ccc(C=O)cc1)(COC(C)=O)COC(C)=O
201 to 203	CCOC(=O)C1C=Nc2c(c(F)cc3cc(C(=O)N(C)Cc4ccccc4)cnc23)C1=O (stereo not drawn)
190 to 192	CC1(C)CNc2nc(-c3ccncc3)c(F)c(=O)n2C1
211	CC(C)n1cc(-c2nc(C#N)c(N)nc2-c2cccc(F)c2)ccc1=O
155 to 157	COc1ccc2[nH]c(S(=O)Cc3cc(N(C)C)c(Cl)cn3)nc2c1 (stereo not drawn)
165 to 167	CC(C)Sc1c(-c2ccc(S(C)(=O)=O)cc2)cnn(CC(F)(F)F)c1=O
166 to 169	Cn1nc(-c2ccc(S(C)(=O)=O)cc2)c(-c2ccc(F)cc2)c1OCC(=O)c1ccc(F)cc1
91 to 92	COc1ccc(Cl)cc1CCC(=O)O
148 to 151	Cc1ccc(-c2ccc3c(c2)C=C(C(=O)NC2CCN(CC4=CCCCCCC4)CC2)CCO3)cc1
228 to 230	COc1ccc(N2CCOCC2)c2sc(C(N)=O)nc12
157 to 158	N#Cc1ccc(N2CCN(CCC3CCc4ccccc43)CC2)cc1 (stereo not drawn)
100 to 102	O=C(OCc1ccccc1)N1CCC2(CC1)CN(c1ccccc1)C(=O)O2
84 to 86	Brc1ccc2oc(Cc3cccs3)cc2c1

melting point [°C]	SMILES
194 to 196	COc1ccc(C2(C#N)CCC(C(=O)O)CC2)c2c1oc1ccccc12 (stereo not drawn)
57 to 58	C#CCCc1cc2cc(C(=O)OC)ccc2o1
193 to 195	O=C(NC1CC1)c1ccc(-c2ccc3nnn(Cc4ccc5ncccc5c4)c3n2)cc1F
72	COC(=O)c1cccc(C)c1[N+](=O)[O-]
95 to 110	CCOC(=O)C1=C(C)NC(c2csc(N)n2)=NC1c1ccc(F)cc1Cl (stereo not drawn)
272 to 274	O=C(O)CN1C(=O)C(=Cc2ccc(Cl)cc2)SC1=S
138	CCCCOc1cc(C(=O)NCCCN2CCCCC2)cc(S(N)(=O)=O)c1Cc1ccccc1
225 to 227	CCCP(=O)(CCC)Cc1ccc(NC(=O)/C=C/c2cccc(-c3ccc(C)cc3)c2)cc1
205 to 206	N#Cc1ccc2nc(-c3cccc(Br)c3)cn2c1
122 to 124	COC(=O)CCCc1cc2nc(Cl)ccc2n1S(=O)(=O)c1ccc(-n2cccn2)cc1
46 to 49	CCCCCCOc1cccc2ncccc12
231 to 234	CONC(=O)c1cc(C)c(C(c2cc(F)ccc2F)S(=O)(=O)c2ccc(F)cc2)cn1 (stereo not drawn)
260	COc1ccc2c(O)c(C(=O)N(O)c3ccccc3)cnc2c1
162 to 163	Cc1ccc(-c2nn(Cc3ccccc3)c(N)c2C#N)cc1
166	Cc1cc2n(c1C(=O)c1cccs1)CCC2C(=O)O (stereo not drawn)
237 to 238	COc1cc2cc(C=NO)c(Cl)nc2cc1OC
104 to 106	O=C(CNC(=O)c1ccc([N+](=O)[O-])cc1F)OCc1ccccc1
205 to 207	CN1C(=O)CC[C@]2(C)c3ccc(-c4cccc5cccnc45)cc3CC[C@@H]12
148 to 150	CCC(=O)C(=CS(=O)(=O)c1ccc(OS(=O)(=O)c2ccc(C)cc2)cc1)N(C)C

Continued, compound first:

SMILES	melting point [°C]
O=S(=O)(F)Cc1ccc(F)c(Oc2ccccc2)c1	59.5 to 61.5
CCCCCCCCCCCCCCCCSCC(CNS(=O)(=O)CCCI)n1nnnc1C (stereo not drawn)	63.5 to 65.5
CNC(=O)NCCCCc1cccc(OC)c1	74 to 75.5
CS(=O)(=O)N1CCN(c2nc(N)nc(-c3cc(Cl)ccc3Cl)n2)CC1	184 to 186
O=c1[nH]c2cccc(Cl)c2c(=O)n1CCCN1CC=C(c2ccc(Cl)cc2)CC1	190 to 194
Cc1[nH]c(C#N)c(C)c1-c1nc2ccc(C(=O)c3ccccc3)cc2[nH]1	159 to 163
Cc1cc(C)c(S(=O)(=O)NC(COc2ccccc2)C(F)(F)F)c(C)c1 (stereo not drawn)	89 to 91
CCOC(=O)C(O[Si](C)(C)C)C(O[Si](C)(C)C)c1cc(OC)c(OC)cc1[N+](=O)[O-] (stereo not drawn)	151 to 153
Fc1ccc2c(c1)CC(n1cc[nH]c1=S)CC2 (stereo not drawn)	215 to 217
COc1ccc(CN(C)C(=O)CCCOc2ccc3c(c2)CN2CC(=O)NC2=N3)cc1	256 to 258
CCN1CC(=O)N(C)c2cc(Nc3ncc(Cl)c(Nc4ccc(OC)cc4-n4cccn4)n3)c(OC)cc2C1	105 to 107
Cn1nc(-c2cccs2)c(N)c1N	154 to 155
COc1ccc2c(c1)OCC21C(=O)N(Cc2cccnc2)c2ccccc21 (stereo not drawn)	164 to 165
COc1ccc(C(=O)Nc2ccc(-n3nc(C(F)(F)F)cc3C(F)(F)F)cc2)cc1	205 to 207
Cc1cc(Cl)cc(C(=O)Nc2ccc(F)cn2)n1	156
O=c1[nH]c(N2CCN(CCCCN3CCCCC3)CC2)cc2ccc(Br)cc12	211 to 212
Cc1ccc(-c2cncn2-c2ccc(S(C)(=O)=O)cc2)cc1F	147
CS(=O)(=O)c1ccc(Oc2ccc3[nH]c(C4=NCC(CC(=O)N5CCOCC5)S4)cc3c2)cn1 (stereo not drawn)	168 to 169

SMILES	melting point [°C]
N[C@@]1(C(=O)O)C[C@H](Oc2ccc(Cl)cc2Cl)[C@H]2[C@H](C(=O)O)[C@H]21 (relative stereo)	> 250
O=C(/C=C/c1ccccc1I)NCCO	130 to 132
C#CCNC(=O)c1cccc(F)c1Nc1nc(Nc2ccc3c(c2)OCCCN3C(C)=O)ncc1Cl	196 to 199
O=C(NCCc1ccccn1)c1ccc2cc(C(=O)O)[nH]c2c1	198 to 199
CC(C)n1nc(-c2c(OCc3ccccc3)nc(N)nc2-c2ccccc2)ccc1=O	162 to 163
COC(=O)CCCc1cc2nc(Cl)ccc2n1S(=O)(=O)c1ccc(OC(F)(F)F)cc1	109
O=C(Cn1nc(-c2cc(Cl)ccc2O)nc1-c1cc(Cl)ccc1O)NCCN1CCOCC1	224 to 226
Cc1nc2c(OCc3ccccc3)nccn2c1N	126 to 133
N#CCCn1nc2ccc(Cl)nn2c1=O	166 to 168
Cc1c([N+](=O)[O-])ccc2[nH]ccc12	179 to 180
COc1cc2nc(N)nc(-c3ccc(I)cc3)c2cc1OC	240 to 242
CCOc1nc(O)ns1	98
N#CCOC(=O)CCCCc1c[nH]c2ccccc12	76
CN(C)CC(O)C(c1ccccc1)c1ccccc1 (stereo not drawn)	72 to 73
O=C(Nc1ccc(Cl)cc1)NC1CCN(C(=O)Cc2c[nH]cn2)CC1	174 to 176
Nc1ccc(-c2n[nH]c3c2sc2ccccc23)cc1	113 to 115
CCc1ccc(C2(OC(C)=O)C(=O)c3ccccc3C2=O)c(OC(C)=O)c1	136 to 137
